Measurements published in US11491134B2, “Composition for inhibiting skin cell proliferation and/or anti-inflammation method for inhibiting skin cell proliferation and/or anti-inflammation and method for treating skin diseases and/or inflammatory diseases” (Industrial Technology Research Institute, priority 2019, dated 2022).

Test system: macrophages, RAW264.7 cells
Test: Inhibition rate on inflammation (anti-inflammatory activity): nitric oxide, Griess reagent, LPS-treated macrophages
Type: cell-based
Details: Mus musculus; for inhibition at 1.5625 µM: apigenin 1.5625 μM/0.42 μg/mL; for inhibition at 3.125 µM: apigenin 3.125 μM/0.84 μg/mL; for inhibition at 6.25 µM: apigenin 6.25 μM/1.69 μg/mL; for inhibition at 12.5 µM: apigenin 12.5 μM/3.38 μg/mL; for inhibition at 25 µM: apigenin 25 μM/6.76 μg/mL; for inhibition at 50 µM: apigenin 50 μM/13.51 μg/mL; for inhibition at 0.625 µM: apigenin 0.625 μM/0.17 μg/mL; for inhibition at 1.25 µM: apigenin 1.25 μM/0.34 μg/mL; for inhibition at 2.5 µM: apigenin 2.5 μM/0.68 μg/mL; for inhibition at 5 µM: apigenin 5 μM/1.35 μg/mL; for inhibition at 10 µM: apigenin 10 μM/2.70 μg/mL; for inhibition at 0.3125 µM: apigenin 0.3125 μM/0.08 μg/mL
Procedure: Dimethyl sulfoxide (DMSO) was used as a solvent to prepare apigenin test samples with different concentrations and luteolin test samples with different concentrations. 9 batches of experiments were performed, which respectively were Batch 1 to Batch 9. There were 6 independent experiments in each batch of experiments. In each independent experiment, inhibition rate of an apigenin test sample with a specific concentration on inflammation and inhibition rate of a luteolin test sample with a specific concentration on inflammation were determined, and inhibition rate of a combination of an apigenin test sample with the said specific concentration and a luteolin test sample with the said specific concentration on inflammation was determined. Between the independent experiments, concentrations of apigenin test samples used were different, and concentrations of luteolin test samples used were also different, however, mole ratios or weight ratios of apigenin test samples to luteolin test samples were the same. Moreover, between the batches of experiments, mole ratios or weight ratios of apigenin test samples to luteolin test samples were different. 5×10^4 macrophages, RAW264.7 cells, were inoculated in a 96-well culture plate and then placed in a 37° C. and 5% CO2 incubator for culturing overnight. After overnight culture, the supernatant was removed, and lipopolysaccharide (LPS) (50 ng/mL) and a test sample was added to the cells (refer to Table 2, and the cells of the induced group were treated with lipopolysaccharide and dimethyl sulfoxide while the cells of the control group were only treated with dimethyl sulfoxide) for reaction for 24 hours. Thereafter, the supernatant of each well in the culture plate was transferred to a new culture plate and reacted with Griess reagent (Promega, Cat. No. G2930), respectively, and then the absorbance of each well of the culture plate was determined at 540 nm by a continuous wavelength microplate reader to evaluate the content of nitric oxide (NO), and anti-inflammatory activity was calculated through the following formula: Anti-inflammation=(Induced group540 nm−Experimental group540 nm)/(Induced group540 nm−Control group540 nm) In this experiment, the synergistic effects of apigenin and luteolin were evaluated by CalcuSyn software (BIOSOFT). CalcuSyn software is an analysis software which is commonly used to analyze the drug dosage effect of single drug and multiple drugs at present. CalcuSyn software can be used to analyze drug complex interactions and automatically quantify various phenomena such as synergism and inhibition. CalcuSyn software can process the data of individual drugs and combination drugs with constant-ratio or on-constant-ratio, and can evaluate the interaction of combination drugs by the combination index (CI) (Chou and Talalay, Adv. Enzyme Regul. 22:27-55 (1984) calculated by CalcuSyn software. Calculation formula for the combination index is shown in the following: Combination index=C1/IC1+C2/IC2 C1 and C2 are the respective concentrations of the first compound and the second compound at which the activity of achieving a specific physiological or medical purpose is 50% (or 75%, or 90%) when the first compound and the second compound are analyzed in combination; IC1 and IC2 are the respective concentrations at which the activity of achieving a specific physiological or medical purpose of the first compound and the second compound is 50% (or 75%, or 90%) when the first compound and the second compound are independently analyzed. […]

With O=c1cc(-c2ccc(O)cc2)oc2cc(O)cc(O)c12 [Apigenin, apigenin] the inhibition at 1.5625 µM (RAW264.7, Batch 1) was 1.1%, the inhibition at 3.125 µM (RAW264.7, Batch 1) was 7% and the inhibition at 6.25 µM (RAW264.7, Batch 1) was 26.3%. The inhibition at 12.5 µM (RAW264.7, Batch 1) was 48.1%, the inhibition at 25 µM (RAW264.7, Batch 1) was 78.7% and the inhibition at 50 µM (RAW264.7, Batch 1) was 99.9%. The inhibition at 1.5625 µM (RAW264.7, Batch 2) was 2%, the inhibition at 3.125 µM (RAW264.7, Batch 2) was 16.6% and the inhibition at 6.25 µM (RAW264.7, Batch 2) was 23.7%. The inhibition at 12.5 µM (RAW264.7, Batch 2) was 32.9%, the inhibition at 25 µM (RAW264.7, Batch 2) was 74.1% and the inhibition at 50 µM (RAW264.7, Batch 2) was 99.9%. For the same compound, the inhibition at 1.5625 µM (RAW264.7, Batch 3) was 0.1%, the inhibition at 3.125 µM (RAW264.7, Batch 3) was 0.9% and the inhibition at 6.25 µM (RAW264.7, Batch 3) was 20.2%. For the same compound, the inhibition at 12.5 µM (RAW264.7, Batch 3) was 57.9%, the inhibition at 25 µM (RAW264.7, Batch 3) was 93.8% and the inhibition at 50 µM (RAW264.7, Batch 3) was 99.5%. It also gave an inhibition at 1.5625 µM (RAW264.7, Batch 4) of 0.1%, an inhibition at 3.125 µM (RAW264.7, Batch 4) of 0.1% and an inhibition at 6.25 µM (RAW264.7, Batch 4) of 12%. It also gave an inhibition at 12.5 µM (RAW264.7, Batch 4) of 45.4%, an inhibition at 25 µM (RAW264.7, Batch 4) of 93.4% and an inhibition at 50 µM (RAW264.7, Batch 4) of 99.9%. It also gave an inhibition at 1.5625 µM (RAW264.7, Batch 5) of 3.4%, an inhibition at 3.125 µM (RAW264.7, Batch 5) of 11.2% and an inhibition at 6.25 µM (RAW264.7, Batch 5) of 27.9%. The inhibition at 12.5 µM (RAW264.7, Batch 5) was 59.5%, the inhibition at 25 µM (RAW264.7, Batch 5) was 92.7% and the inhibition at 50 µM (RAW264.7, Batch 5) was 97.6%. It also gave an inhibition at 1.5625 µM (RAW264.7, Batch 6) of 18.9%, an inhibition at 3.125 µM (RAW264.7, Batch 6) of 7.4% and an inhibition at 6.25 µM (RAW264.7, Batch 6) of 28.9%. It also gave an inhibition at 12.5 µM (RAW264.7, Batch 6) of 59.4%, an inhibition at 25 µM (RAW264.7, Batch 6) of 97.2% and an inhibition at 50 µM (RAW264.7, Batch 6) of 99.9%. The inhibition at 0.625 µM (RAW264.7, Batch 7) was 0.1%, the inhibition at 1.25 µM (RAW264.7, Batch 7) was 0.1% and the inhibition at 2.5 µM (RAW264.7, Batch 7) was 3.2%. The inhibition at 5 µM (RAW264.7, Batch 7) was 30%, the inhibition at 10 µM (RAW264.7, Batch 7) was 65.3% and the inhibition at 20 µM (RAW264.7, Batch 7, apigenin 20 μM/5.40 μg/mL) was 96%. For the same compound, the inhibition at 0.3125 µM (RAW264.7, Batch 8) was 0.1%, the inhibition at 0.625 µM (RAW264.7, Batch 8) was 0.1% and the inhibition at 1.25 µM (RAW264.7, Batch 8) was 0.1%. For the same compound, the inhibition at 2.5 µM (RAW264.7, Batch 8) was 0.6%, the inhibition at 5 µM (RAW264.7, Batch 8) was 20.6% and the inhibition at 10 µM (RAW264.7, Batch 8) was 51%. For the same compound, the inhibition at 0.078 µM (RAW264.7, Batch 9, apigenin 0.078 μM/0.02 μg/mL) was 2%, the inhibition at 0.156 µM (RAW264.7, Batch 9, apigenin 0.156 μM/0.04 μg/mL) was 0.2% and the inhibition at 0.3125 µM (RAW264.7, Batch 9) was 10.4%. It also gave an inhibition at 0.625 µM (RAW264.7, Batch 9) of 6.5%, an inhibition at 1.25 µM (RAW264.7, Batch 9) of 6.5% and an inhibition at 2.5 µM (RAW264.7, Batch 9) of 14.9%.
